Results on ten compounds are retold here after ChEMBL document CHEMBL1130399 (J Med Chem, 1997).

Each structure is given as a SMILES string.

Test [1] deals with T1, Cannabinoid receptor (Rattus norvegicus, UniProt Q9QZN9+P20272). The experiment in a line: Binding affinity towards cannabinoid receptor using [3H]CP-55940 as radioligand in rat brain membrane. The format is cell membranes.
For test [2], the target named is T1, Cannabinoid receptor. The experiment in a line: Binding affinity towards cannabinoid receptor using [3H]SR-141,716A as radioligand in rat brain membrane. The test is classed as cell membranes.
For test [3], the species on record is Mus musculus. The experiment in a line: Maximal degree of inhibition of electrically evoked contractions in a mouse vas deferens assay. The test is classed as functional.
For test [4], the species on record is Mus musculus. The experiment in a line: Inhibition of rectal temperature(RT) in mice was determined. The format is functional.
The species entered for test [5] is Mus musculus. The experiment in a line: Inhibition of ring immobility(RI) in mice was determined. The test is classed as functional.
For test [6], the species on record is Mus musculus. The experiment in a line: Effective concentration that causes twitch inhibition in a mouse vas deferens assay. The format is functional, organism-based.
The species named for test [7] is Mus musculus. The experiment in a line: Inhibition of spontaneous activity(SA) in mice was determined. The format is functional.
The species named for test [8] is Mus musculus. The experiment in a line: Inhibition of tail flick response[…] in mice was determined. The format is functional.
The species entered for test [9] is Mus musculus. The experiment in a line: Maximum possible effect for antinociception as measured by the tail flick response (TF). The test is classed as functional.
The species entered for test [10] is Mus musculus. The experiment in a line: Maximum possible effect for inhibition of spontaneous activity (SA). The format is functional.
For test [11], the species on record is Mus musculus. The experiment in a line: Maximum possible effect for ring immobility (RI). The test is classed as functional.
For test [12], the species on record is Mus musculus. The experiment in a line: Hypothermia measured as changes in rectal temperature (RT).

For `CCCCCCC(C)(C)/C=C\C/C=C\C/C=C\C/C=C\CCCC(=O)N[C@@H](C)CO`, the Ki – broadly, the dissociation constant of the complex between target and ligand, obtained from inhibition or displacement – in test [1] was 5 nM; in [2], 161 nM. Also, the Emax (in general, the greatest response seen or fitted, relative to the assay's reference) in [3] was 67.2%. Also, the ED50 (as a rule, the midpoint of the dose-response relation) in test [4] came out at 5 mg/kg; in [5] it was 2.5 mg/kg; in [7], 2.6 mg/kg; in test [8] it was 4.8 mg/kg. Besides, the EC50 (in general, the concentration at which the effect is half-maximal) in test [6] is 28.3 nM. The MPE in test [9] turned out to be 100%; in [10] it was 90%; in test [11], 80%. In test [12], this compound had a rectal temperature change of -2 °C.
Take `CCCCCCC(C)(C)/C=C\C/C=C\C/C=C\C/C=C\CCCC(=O)NCCO`: the Ki in test [1] turned out to be 1.9 nM; in test [2] it was 153 nM. The maximal effect (Emax) in test [3] was determined as 68.3%. Also, the ED50 in test [4] amounted to 2.9 mg/kg; in test [5] it was 1 mg/kg; in test [7], 1.5 mg/kg; in test [8] it was 1.7 mg/kg. Further, the half-maximal effective concentration (EC50) in [6] is 59.7 nM. The MPE in [9] is listed as 91%; in test [10] it was 90%; in test [11], 74%. In [12], this compound displayed a rectal temperature change of -3.5 °C.
With `CCCCCCC(C)(C)/C=C\C/C=C\C/C=C\C/C=C\CCCC(=O)NCCOC`, the inhibition constant Ki in test [1] was 3.9 nM; in [2], 54 nM. For the same compound, in test [3], the Emax came to 44.6%. Moreover, the median effective dose (ED50) in test [5] was found to be 5.7 mg/kg; in test [7], 4 mg/kg; in test [8], 13.3 mg/kg. In test [6], this compound returned a 50% effective concentration (EC50) of 36 nM. In addition, the MPE amounted to 100% in test [9], 98% in test [10] and 86% in test [11]. In addition, the rectal temperature change in [12] is -1.5 °C.
Turning to `CCCCCCC(C)(C)/C=C\C/C=C\C/C=C\C/C=C\CCCC(=O)NCCC`, the Ki in test [1] came to 1.5 nM; in [2], 31 nM. Besides, in test [3], the maximal effect (Emax) was 65.3%. Besides, in test [6], the concentration for a half-maximal effect (EC50) came to 11.7 nM. Besides, the results for the ED50 in test [7] and in [8] were 1.2 mg/kg and 6.3 mg/kg, respectively. In addition, the MPE in test [11] was found to be 81%. In test [12], this compound had a rectal temperature change of -1.5 °C.
As for `CCCCCCC(C)(C)/C=C\C/C=C\C/C=C\C/C=C\CCCC(=O)N[C@H](C)CO`, the Ki in [1] came out at 1.7 nM; in test [2], 220 nM. The compound also had an Emax in [3] of 65.2%. Besides, the 50% effective dose (ED50) is 6 mg/kg in [4], 2.4 mg/kg in test [5], 1.1 mg/kg in [7] and 1 mg/kg in [8]. The compound also returned a concentration for a half-maximal effect (EC50) in [6] of 60.6 nM. Besides, the MPE is on record as 100% in [9], 95% in test [10] and 85% in test [11]. For the same compound, the rectal temperature change in test [12] is -2.8 °C.
As for `CCCCC/C=C\C/C=C\C/C=C\C/C=C\CCCC(=O)NC[C@H](C)O`, the Ki in [1] came to 57 nM. For the same compound, the Emax in test [3] worked out at 71.7%. The compound also had an EC50 in [6] of 36.1 nM.
As to `CCCCC/C=C\C/C=C\C/C=C\C/C=C\CCCC(=O)NCCC`, the results for the inhibition constant (Ki) in test [1] and in [2] were 2.6 nM and 238 nM, respectively. Moreover, the Emax in test [3] was determined as 51.2%. The compound further displayed a half-maximal effective concentration (EC50) in test [6] of 10.9 nM.
The corresponding values for `CCCCC/C=C\C/C=C\C/C=C\C/C=C\CCCC(=O)NCCOC` are 44 nM, 466 nM, 34% and 3 nM.
As to `CCCCC/C=C\C/C=C\C/C=C\C/C=C\CCCC(=O)NCCO` [ANANDAMIDE], the Emax in [3] came to 100%. This compound also had an EC50 in test [6] of 52.7 nM. The same compound returned an ED50 in test [8] of 6.2 mg/kg.
In test [3], `CCCCC/C=C\C/C=C\C/C=C\C/C=C\CCCC(=O)N[C@H](C)CO` [METHANANDAMIDE] yielded an Emax of 100%. In [6], this compound displayed an EC50 of 10.1 nM.
